{"source": "patent US10130636B2", "about": "“High dosage strength tablets of rucaparib” (Clovis Oncology, Inc., priority 2014, dated 2018)", "key": {"[1]": {"settings": "as stated in U.S. Pat. No. 8,754,072; compared to other salt forms; cited from earlier work"}, "[2]": {"assay": "CTC profiles (compressibility, tabletability, compactability) of rucaparib salt intra granular formulations", "assay_type": "physicochemical", "settings": "for formation of compacts: pure API without excipients, maleate also at 90% loading, 100 mg compacts", "description": "The most relevant and broadly accepted approach to assessing compression evaluation of different formulations (and different API salts) is by measuring the interrelationships of compression stress, solid fraction, and tensile strength using a compaction simulator. These parameters are related to each other in a set of relationships referred to as compressibility, tabletability, and compactability profiles (i.e., CTC Profiles) (Tye, Sun, Amidon, J. Pharm. Sci, 94: 465-472, (2005)). Focus was on the intra granular blend rather than the final blend because nearly all of the lead formulation is processed through dry granulation; only a small portion is extra granular. Additionally, the extra granular lubrication step at small scale is not representative of downstream pilot or commercial processing and risks masking intrinsic compressibility properties. For the provided lot of each salt form, formulations were evaluated at 100%, 90%, 75%, and 60% of the final tablet formulation (this correlates to 100%, 90.68%, 75.57%, and 60.45% intra granular components). CTC profiles for each API and formulation were determined by compressing (Texture Technologies model TA.XT Plus Texture Analyzer), in triplicate, 1⁄4'' round flat-faced 100 mg compacts using a linear sawtooth strain profile at 5 mm/sec velocity to four pre-programmed peak forces encompassing roller compaction and tableting compression stress ranges (e.g., up to 240 MPa). The compacts were then evaluated for physical dimensions, weight, and hardness. […] The maximum acceptable compression stress considered within normal ranges of a commercial rotary tablet press is approximately 250 MPa. Similarly, a typical target tensile strength for tablets is 2 MPa; such tablets generally have low friability, and are suitable for downstream handling and film coating. Thus, if a given formulation can be compressed to a tensile strength of 2 MPa at a compression stress of less than 250 MPa, it is considered to have acceptable compressibility."}, "[3]": {"assay": "Hygroscopicity of rucaparib salts", "assay_type": "physicochemical", "settings": "compared to other salts of rucaparib"}, "[4]": {"settings": "Drug Load 60%, Compression Stress 47.9 MPa"}, "[5]": {"settings": "Drug Load 60%, Compression Stress 80.3-80.4 MPa"}, "[6]": {"settings": "Drug Load 60%, Compression Stress 176.0-177.0 MPa"}, "[7]": {"settings": "Drug Load 60%, Compression Stress 239.5-240.4 MPa"}, "[8]": {"settings": "Drug Load 75%, Compression Stress 48.3-48.5 MPa"}, "[9]": {"settings": "Drug Load 75%, Compression Stress 80.5-80.8 MPa"}, "[10]": {"settings": "Drug Load 75%, Compression Stress 176.8-177.8 MPa"}, "[11]": {"settings": "Drug Load 75%, Compression Stress 240.1-240.7 MPa"}}, "note": "Like-named read-outs stand apart in the source and are kept apart here."}
{"compound": "Rucaparib Maleate", "values": [{"measurement": "hygroscopicity", "setting": "[1]", "value": "less hygroscopic"}, {"measurement": "tabletability, fold lower than the camsylate salt", "setting": "[2]; 60 and 75% API loading", "value": "2-2.5 ×"}, {"measurement": "Tensile Strength", "setting": "[2]; [4]", "value": 0.3, "unit": "MPa"}, {"measurement": "Tensile Strength", "setting": "[2]; [5]", "value": 0.6, "unit": "MPa"}, {"measurement": "Tensile Strength", "setting": "[2]; [6]", "value": 1.2, "unit": "MPa"}, {"measurement": "Tensile Strength", "setting": "[2]; [7]", "value": 1.4, "unit": "MPa"}, {"measurement": "Tensile Strength", "setting": "[2]; [8]", "value": 0.2, "unit": "MPa"}, {"measurement": "Tensile Strength", "setting": "[2]; [9]", "value": 0.4, "unit": "MPa"}, {"measurement": "Tensile Strength", "setting": "[2]; [10]", "value": 0.8, "unit": "MPa"}, {"measurement": "Tensile Strength", "setting": "[2]; [11]", "value": 0.8, "unit": "MPa"}, {"measurement": "drug loading needed to obtain tablets with sufficient strength", "setting": "[2]; estimated, target >70%", "value": "< 50", "unit": "%"}, {"measurement": "formation of compacts", "setting": "[2]", "value": "not able to be formed"}]}
{"compound": "CNCc1ccc(-c2[nH]c3cc(F)cc4c3c2CCNC4=O)cc1", "note": "[Camsylate, Rucaparib Camsylate]", "values": [{"measurement": "hygroscopicity", "setting": "[1]", "value": "less hygroscopic"}, {"measurement": "Tensile Strength", "setting": "[2]; [4]", "value": 0.6, "unit": "MPa"}, {"measurement": "Tensile Strength", "setting": "[2]; [5]", "value": 1.3, "unit": "MPa"}, {"measurement": "Tensile Strength", "setting": "[2]; [6]", "value": 2.6, "unit": "MPa"}, {"measurement": "Tensile Strength", "setting": "[2]; [7]", "value": 3.1, "unit": "MPa"}, {"measurement": "Tensile Strength", "setting": "[2]; [8]", "value": 0.6, "unit": "MPa"}, {"measurement": "Tensile Strength", "setting": "[2]; [9]", "value": 1.1, "unit": "MPa"}, {"measurement": "Tensile Strength", "setting": "[2]; [10]", "value": 2.3, "unit": "MPa"}, {"measurement": "Tensile Strength", "setting": "[2]; [11]", "value": 2.8, "unit": "MPa"}, {"measurement": "formation of compacts", "setting": "[2]", "value": "formed good compacts"}, {"measurement": "hygroscopicity", "setting": "[3]", "value": "low hygroscopicity"}]}
